Values quoted from earlier work as cited in US10434129B2, “Composition to enhance HDL cholesterol and to decrease intima-media thickening in animals and humans and a method for its preparation” (ARJUNA NATURAL LTD, priority 2003, dated 2019).

How the values were obtained:
[1] = test system: rat vascular smooth muscle cells (VSMC)
[2] = test system: Human umbilical vein endothelial cells (HUVEC); conditions: HUVEC incubated with ox-LDL

O=C(O[C@@H]1O[C@@H]2COC(=O)c3cc(O)c(O)c(O)c3-c3c(cc(O)c(O)c3O)C(=O)O[C@H]([C@H]1O)[C@@H]2O)c1cc(O)c(O)c(O)c1 [corilagin]
VSMC proliferation induced by ox-LDL [1]: inhibited VSMC proliferation | Malondialdehyde (MDA) in the culture media [2]: reduce MDA | adhesion of HUVEC to monocytes ([2]; then monocytes): prevented HUVEC from adhering to monocytes
